From publication PMC10412597, “Small molecule branched-chain ketoacid dehydrogenase kinase (BDK) inhibitors with opposing effects on BDK protein levels” (Nature Communications, 2023)

Columns and labels:
Set-up in all cases: Invitrogen kinase panel, per cent inhibition of kinase activity
Conditions in all cases: 10 µM, inhibitor
[1] = target: SRPK1 (Homo sapiens, UniProt Q96SB4)
Summary of the method: (§1)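 Compounds from a BDK inhibitor screen were counter-screened for off-target activity in a kinase panel.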

[2] = target: PLK1 (Homo sapiens, UniProt P53350)
Summary of the method: as §1

[3] = target: HCK (Homo sapiens, UniProt P08631)
Summary of the method: as §1

[4] = target: BTK (Homo sapiens, UniProt Q06187)
Chain of BTK (Q06187 whole entry): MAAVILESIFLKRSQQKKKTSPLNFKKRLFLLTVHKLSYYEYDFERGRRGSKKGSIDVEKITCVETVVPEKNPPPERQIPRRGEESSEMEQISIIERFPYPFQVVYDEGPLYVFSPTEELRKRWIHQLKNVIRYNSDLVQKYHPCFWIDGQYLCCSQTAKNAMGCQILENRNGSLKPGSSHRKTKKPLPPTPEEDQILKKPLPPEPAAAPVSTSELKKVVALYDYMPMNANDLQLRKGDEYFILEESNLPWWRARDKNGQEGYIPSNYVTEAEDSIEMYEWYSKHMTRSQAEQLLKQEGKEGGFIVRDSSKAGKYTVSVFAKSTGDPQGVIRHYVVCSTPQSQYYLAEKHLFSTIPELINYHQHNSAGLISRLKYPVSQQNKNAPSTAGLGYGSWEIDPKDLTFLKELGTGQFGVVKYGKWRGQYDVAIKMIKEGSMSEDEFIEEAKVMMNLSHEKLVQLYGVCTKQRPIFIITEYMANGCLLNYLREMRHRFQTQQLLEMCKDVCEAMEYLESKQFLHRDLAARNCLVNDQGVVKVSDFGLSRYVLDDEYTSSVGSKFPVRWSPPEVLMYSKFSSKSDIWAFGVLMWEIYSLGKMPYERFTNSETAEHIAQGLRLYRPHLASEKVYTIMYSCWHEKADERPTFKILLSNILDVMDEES
Description: (§2) To discover a potent and selective BDK inhibitor, a subset of the Pfizer compound collection was screened. […] Off target activity was assessed in both CEREP and kinase panels (Supplementary Tables 2, 3).

[5] = target: AKT1 (Homo sapiens, UniProt P31749)
Chain of AKT1 (P31749 whole entry): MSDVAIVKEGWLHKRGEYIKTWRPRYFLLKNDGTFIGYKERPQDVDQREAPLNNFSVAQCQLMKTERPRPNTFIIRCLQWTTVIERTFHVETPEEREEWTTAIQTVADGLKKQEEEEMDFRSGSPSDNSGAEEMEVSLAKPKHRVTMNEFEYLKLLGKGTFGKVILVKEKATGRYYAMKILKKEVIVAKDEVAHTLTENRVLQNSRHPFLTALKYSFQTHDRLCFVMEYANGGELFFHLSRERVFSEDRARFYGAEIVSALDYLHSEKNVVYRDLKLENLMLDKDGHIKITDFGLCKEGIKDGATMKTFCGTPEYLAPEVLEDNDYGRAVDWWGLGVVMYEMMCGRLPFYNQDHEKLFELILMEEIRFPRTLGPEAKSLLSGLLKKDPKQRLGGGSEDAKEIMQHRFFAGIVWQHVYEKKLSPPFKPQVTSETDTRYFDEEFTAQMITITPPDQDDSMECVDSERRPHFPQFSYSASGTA
Description: as §2

[6] = target: AURKB (Homo sapiens, UniProt Q96GD4)
Chain of AURKB (Q96GD4 whole entry): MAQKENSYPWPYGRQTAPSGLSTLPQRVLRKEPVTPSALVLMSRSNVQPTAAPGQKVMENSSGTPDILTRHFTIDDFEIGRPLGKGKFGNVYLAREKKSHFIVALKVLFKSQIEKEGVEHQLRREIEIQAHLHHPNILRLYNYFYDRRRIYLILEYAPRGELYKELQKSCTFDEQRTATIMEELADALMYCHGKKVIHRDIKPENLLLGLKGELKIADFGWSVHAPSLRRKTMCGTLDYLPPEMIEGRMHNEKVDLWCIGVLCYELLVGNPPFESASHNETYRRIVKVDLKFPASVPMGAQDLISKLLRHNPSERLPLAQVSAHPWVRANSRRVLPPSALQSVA
Summary of the method: as §1

[7] = target: T1, CHEK1 (Homo sapiens, UniProt O14757)
T1 sequence (O14757 1-476): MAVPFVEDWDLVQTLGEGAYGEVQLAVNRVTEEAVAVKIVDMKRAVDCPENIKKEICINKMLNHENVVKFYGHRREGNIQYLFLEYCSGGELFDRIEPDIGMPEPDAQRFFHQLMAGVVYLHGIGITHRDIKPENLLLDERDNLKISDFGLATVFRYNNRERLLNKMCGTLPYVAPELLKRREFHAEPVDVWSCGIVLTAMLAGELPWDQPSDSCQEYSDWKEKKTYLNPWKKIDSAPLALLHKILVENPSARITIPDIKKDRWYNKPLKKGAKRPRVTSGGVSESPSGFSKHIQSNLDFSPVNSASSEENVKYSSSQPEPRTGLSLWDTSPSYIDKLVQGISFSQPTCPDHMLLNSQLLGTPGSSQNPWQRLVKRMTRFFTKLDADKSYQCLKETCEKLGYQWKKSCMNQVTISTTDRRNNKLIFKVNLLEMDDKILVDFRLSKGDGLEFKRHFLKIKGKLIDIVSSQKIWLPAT
Description: as §2

[8] = target: MAPK13 (Homo sapiens, UniProt O15264)
Chain of MAPK13 (O15264 whole entry): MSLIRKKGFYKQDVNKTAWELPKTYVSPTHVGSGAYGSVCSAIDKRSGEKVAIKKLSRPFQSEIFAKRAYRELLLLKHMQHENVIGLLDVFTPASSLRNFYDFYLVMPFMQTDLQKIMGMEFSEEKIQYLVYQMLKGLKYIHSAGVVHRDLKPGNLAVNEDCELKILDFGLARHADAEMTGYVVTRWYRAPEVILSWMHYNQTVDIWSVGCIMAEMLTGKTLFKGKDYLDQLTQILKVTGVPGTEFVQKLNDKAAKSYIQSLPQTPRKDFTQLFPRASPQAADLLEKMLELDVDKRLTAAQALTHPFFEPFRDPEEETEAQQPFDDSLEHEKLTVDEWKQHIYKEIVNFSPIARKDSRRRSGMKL
Summary of the method: as §1

[9] = target: T2, Rsk2 (Homo sapiens, UniProt P51812)
T2 construct: gene RPS6KA3
Summary of the method: as §1

[10] = target: PRKACA (Homo sapiens, UniProt P17612)
Description: as §2

[11] = target: T3, MEK1 (Homo sapiens, UniProt Q02750)
T3 construct: gene MAP2K1
Description: as §2

[12] = target: INSR (Homo sapiens, UniProt P06213)
Chain of INSR (P06213 whole entry): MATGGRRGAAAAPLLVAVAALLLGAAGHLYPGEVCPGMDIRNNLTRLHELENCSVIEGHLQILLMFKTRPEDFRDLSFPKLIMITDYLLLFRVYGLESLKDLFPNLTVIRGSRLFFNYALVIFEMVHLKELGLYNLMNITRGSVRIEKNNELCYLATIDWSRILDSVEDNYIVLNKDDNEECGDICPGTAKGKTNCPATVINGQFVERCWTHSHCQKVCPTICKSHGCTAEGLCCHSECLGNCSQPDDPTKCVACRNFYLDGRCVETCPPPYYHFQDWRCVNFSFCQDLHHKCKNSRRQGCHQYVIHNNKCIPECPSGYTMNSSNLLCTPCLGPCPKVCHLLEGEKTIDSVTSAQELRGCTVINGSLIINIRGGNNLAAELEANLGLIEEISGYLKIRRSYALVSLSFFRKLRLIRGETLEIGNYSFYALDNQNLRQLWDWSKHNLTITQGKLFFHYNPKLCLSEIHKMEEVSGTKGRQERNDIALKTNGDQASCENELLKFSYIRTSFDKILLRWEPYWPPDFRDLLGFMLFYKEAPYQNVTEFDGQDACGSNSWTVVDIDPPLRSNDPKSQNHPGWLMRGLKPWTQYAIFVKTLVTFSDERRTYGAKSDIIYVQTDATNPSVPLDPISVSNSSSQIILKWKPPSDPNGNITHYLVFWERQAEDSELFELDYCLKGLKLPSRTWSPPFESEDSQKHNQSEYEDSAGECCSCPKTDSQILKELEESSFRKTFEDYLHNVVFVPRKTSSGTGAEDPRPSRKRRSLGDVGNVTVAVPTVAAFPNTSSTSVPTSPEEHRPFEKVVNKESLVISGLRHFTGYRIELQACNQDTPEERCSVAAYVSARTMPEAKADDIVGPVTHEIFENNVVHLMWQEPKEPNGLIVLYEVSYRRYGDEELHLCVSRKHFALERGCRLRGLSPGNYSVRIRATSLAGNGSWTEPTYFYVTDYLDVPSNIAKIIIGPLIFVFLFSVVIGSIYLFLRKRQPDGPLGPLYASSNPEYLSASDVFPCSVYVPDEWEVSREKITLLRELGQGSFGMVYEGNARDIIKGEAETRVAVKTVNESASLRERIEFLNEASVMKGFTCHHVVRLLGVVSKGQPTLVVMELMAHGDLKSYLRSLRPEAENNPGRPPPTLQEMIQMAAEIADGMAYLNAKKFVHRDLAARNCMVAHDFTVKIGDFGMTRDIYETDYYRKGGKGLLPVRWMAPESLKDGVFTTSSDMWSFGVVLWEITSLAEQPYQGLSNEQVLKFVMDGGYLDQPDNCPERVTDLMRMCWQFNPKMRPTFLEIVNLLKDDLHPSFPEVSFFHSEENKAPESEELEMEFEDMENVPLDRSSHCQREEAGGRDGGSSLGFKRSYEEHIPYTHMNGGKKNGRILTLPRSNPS
Description: as §2

[13] = target: MAPKAPK5 (Homo sapiens, UniProt Q8IW41)
Summary of the method: as §1

[14] = target: T4, PRKCA (Homo sapiens, UniProt P17252)
T4 construct: 1 mM ATP
Summary of the method: as §1

[15] = target: T5, SGK1 (Homo sapiens, UniProt O00141)
T5 sequence (O00141 1-431): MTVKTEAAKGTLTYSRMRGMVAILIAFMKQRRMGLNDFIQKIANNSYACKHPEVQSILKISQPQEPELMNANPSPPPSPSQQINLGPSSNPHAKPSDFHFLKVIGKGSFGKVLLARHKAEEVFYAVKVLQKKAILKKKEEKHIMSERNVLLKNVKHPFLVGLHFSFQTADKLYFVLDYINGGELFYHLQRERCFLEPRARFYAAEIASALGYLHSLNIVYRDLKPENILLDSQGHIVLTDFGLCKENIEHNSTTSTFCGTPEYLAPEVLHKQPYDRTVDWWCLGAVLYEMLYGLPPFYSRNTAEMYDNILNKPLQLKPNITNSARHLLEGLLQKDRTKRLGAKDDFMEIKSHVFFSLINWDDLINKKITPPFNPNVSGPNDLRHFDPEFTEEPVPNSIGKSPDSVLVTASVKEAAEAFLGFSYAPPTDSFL
Description: as §2

[16] = target: GSK3B (Homo sapiens, UniProt P49841)
Chain of GSK3B (P49841 whole entry): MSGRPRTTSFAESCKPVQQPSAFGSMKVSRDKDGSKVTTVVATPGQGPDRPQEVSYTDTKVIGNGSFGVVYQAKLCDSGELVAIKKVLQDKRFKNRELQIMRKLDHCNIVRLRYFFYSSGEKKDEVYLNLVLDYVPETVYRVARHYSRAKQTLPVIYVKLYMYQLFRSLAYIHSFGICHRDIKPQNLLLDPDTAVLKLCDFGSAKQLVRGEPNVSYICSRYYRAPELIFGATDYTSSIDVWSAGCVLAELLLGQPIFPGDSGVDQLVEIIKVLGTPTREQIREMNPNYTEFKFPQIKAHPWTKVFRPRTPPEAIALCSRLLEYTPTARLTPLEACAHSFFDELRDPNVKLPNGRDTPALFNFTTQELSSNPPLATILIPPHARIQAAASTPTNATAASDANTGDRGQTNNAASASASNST
Description: as §2

[17] = target: TEK (Homo sapiens, UniProt Q02763)
Chain of TEK (Q02763 whole entry): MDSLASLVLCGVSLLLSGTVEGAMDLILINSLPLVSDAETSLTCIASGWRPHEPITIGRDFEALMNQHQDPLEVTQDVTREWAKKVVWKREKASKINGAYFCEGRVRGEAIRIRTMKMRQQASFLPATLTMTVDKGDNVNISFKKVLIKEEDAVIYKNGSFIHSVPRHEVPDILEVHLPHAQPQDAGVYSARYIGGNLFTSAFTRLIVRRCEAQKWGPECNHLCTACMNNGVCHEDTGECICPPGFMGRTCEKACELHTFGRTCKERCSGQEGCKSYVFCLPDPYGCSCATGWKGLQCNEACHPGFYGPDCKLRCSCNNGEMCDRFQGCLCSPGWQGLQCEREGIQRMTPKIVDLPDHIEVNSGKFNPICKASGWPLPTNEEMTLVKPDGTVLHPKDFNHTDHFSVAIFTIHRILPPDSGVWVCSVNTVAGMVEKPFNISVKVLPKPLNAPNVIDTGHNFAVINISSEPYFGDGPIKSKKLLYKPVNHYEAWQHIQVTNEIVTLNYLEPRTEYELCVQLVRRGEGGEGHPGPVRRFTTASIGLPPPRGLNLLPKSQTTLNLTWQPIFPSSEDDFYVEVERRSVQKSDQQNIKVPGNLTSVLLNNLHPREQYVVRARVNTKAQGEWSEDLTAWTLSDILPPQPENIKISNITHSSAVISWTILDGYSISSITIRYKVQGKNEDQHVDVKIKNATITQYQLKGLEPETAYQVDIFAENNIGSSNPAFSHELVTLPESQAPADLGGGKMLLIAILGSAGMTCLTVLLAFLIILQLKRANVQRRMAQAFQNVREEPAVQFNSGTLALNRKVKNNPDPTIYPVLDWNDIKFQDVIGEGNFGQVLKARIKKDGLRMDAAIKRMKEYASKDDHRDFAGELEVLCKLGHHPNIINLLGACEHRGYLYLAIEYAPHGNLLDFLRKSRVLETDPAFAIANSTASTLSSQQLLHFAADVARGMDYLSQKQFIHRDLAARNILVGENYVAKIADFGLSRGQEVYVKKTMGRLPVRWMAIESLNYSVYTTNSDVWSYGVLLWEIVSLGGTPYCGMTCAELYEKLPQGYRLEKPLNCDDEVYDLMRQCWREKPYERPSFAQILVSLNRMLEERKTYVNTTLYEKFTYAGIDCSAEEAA
Description: as §2

[18] = target: MAPK12 (Homo sapiens, UniProt P53778)
Summary of the method: as §1

Compound: O=C(O)c1sc2cc(F)sc2c1Cl [PF-07208254, 3-chloro-5-fluorothieno[3,2-b]thiophene-2-carboxylic acid]
- ATP = Km % Inhibition PF-07208254 [1]: 2.8%
- ATP = Km % Inhibition PF-07208254 [2]: 1.8%
- ATP = Km % Inhibition PF-07208254 [3]: 9.9%
- ATP = 1 mM % Inhibition PF-07208254 [4]: 0.8%
- ATP = Km % Inhibition PF-07208254 [4]: 5.9%
- ATP = 1 mM % Inhibition PF-07208254 [5]: -0.8%
- ATP = Km % Inhibition PF-07208254 [5]: 6.7%
- ATP = Km % Inhibition PF-07208254 [6]: 3.0%
- ATP = 1 mM % Inhibition PF-07208254 [7]: 4.3%
- ATP = Km % Inhibition PF-07208254 [7]: 4.6%
- ATP = Km % Inhibition PF-07208254 [8]: 3.6%
- ATP = Km % Inhibition PF-07208254 [9]: -0.7%
- ATP = 1 mM % Inhibition PF-07208254 [10]: -2.4%
- ATP = Km % Inhibition PF-07208254 [10]: 2.7%
- ATP = 100 uM % Inhibition PF-07208254 [11]: 4.1%
- ATP = 1 mM % Inhibition PF-07208254 [12]: 0.0%
- ATP = Km % Inhibition PF-07208254 [12]: 3.1%
- ATP = Km % Inhibition PF-07208254 [13]: 6.6%
- ATP = Km % Inhibition PF-07208254 [14]: 3.8%
- ATP = 1 mM % Inhibition PF-07208254 [15]: 1.9%
- ATP = Km % Inhibition PF-07208254 [15]: -0.1%
- ATP = 1 mM % Inhibition PF-07208254 [16]: 0.7%
- ATP = Km % Inhibition PF-07208254 [16]: 9.7%
- ATP = 1 mM % Inhibition PF-07208254 [17]: 0.7%
- ATP = Km % Inhibition PF-07208254 [17]: 0.3%
- ATP = Km % Inhibition PF-07208254 [18]: 13.3%

Compound: CCC1(COc2ccc(-c3csc(-c4ccccc4C(=O)O)n3)cn2)CC1 [PF-07247685, 2-(4-{6-[(1-ethylcyclopropyl)methoxy]pyridin-3-yl}-1,3-thiazol-2-yl)benzoic acid]
- ATP = Km % Inhibition PF-07247685 [1]: 12.6%
- ATP = Km % Inhibition PF-07247685 [2]: 10.1%
- ATP = Km % Inhibition PF-07247685 [3]: 4.5%
- ATP = 1 mM % Inhibition PF-07247685 [4]: 3.1%
- ATP = Km % Inhibition PF-07247685 [4]: -0.7%
- ATP = 1 mM % Inhibition PF-07247685 [5]: -0.8%
- ATP = Km % Inhibition PF-07247685 [5]: 2.4%
- ATP = Km % Inhibition PF-07247685 [6]: 17.3%
- ATP = 1 mM % Inhibition PF-07247685 [7]: 4.5%
- ATP = Km % Inhibition PF-07247685 [7]: -3.1%
- ATP = Km % Inhibition PF-07247685 [8]: -0.7%
- ATP = Km % Inhibition PF-07247685 [9]: -1.6%
- ATP = 1 mM % Inhibition PF-07247685 [10]: 0.3%
- ATP = Km % Inhibition PF-07247685 [10]: 2.3%
- ATP = 100 uM % Inhibition PF-07247685 [11]: 11.2%
- ATP = 1 mM % Inhibition PF-07247685 [12]: -0.4%
- ATP = Km % Inhibition PF-07247685 [12]: 3.4%
- ATP = Km % Inhibition PF-07247685 [13]: 2.3%
- ATP = Km % Inhibition PF-07247685 [14]: 14.8%
- ATP = 1 mM % Inhibition PF-07247685 [15]: -5.1%
- ATP = Km % Inhibition PF-07247685 [15]: 0.7%
- ATP = 1 mM % Inhibition PF-07247685 [16]: 3.7%
- ATP = Km % Inhibition PF-07247685 [16]: 11.0%
- ATP = 1 mM % Inhibition PF-07247685 [17]: 8.6%
- ATP = Km % Inhibition PF-07247685 [17]: 0.6%
- ATP = Km % Inhibition PF-07247685 [18]: 4.6%
